Experimental data as given in US7652027B2, “Phenanthroindolizidine alkaloids” (National Health Research Institutes, priority 2005, dated 2010).

Experiments:
iNOS promoter = assay: iNOS promoter-luciferase reporter assay in LPS/IFNγ-treated RAW 264.7 (or A549) cells; assay type: cell-based, murine or human; details: 10 μM compound; 5 μg/ml LPS, 20 ng/ml IFNγ; 18-20 h
Description: RAW 264.7 cells (or A549 cells) were seeded in 24-well plates (9×10^4 cells/well) and grown overnight in sodium pyruvate-free DMEM with 4 mM glutamine containing 1% non-essential amino acids (Biological Industries, Israel) with antibiotics and 10% heat-inactivated fetal bovine serum or 10% fetal calf serum (Biological Industries, Israel). The cells were then co-transfected with murine or human iNOS or murine COX-II promoter-luciferase reporter plasmids (100 ng/well) and pCMV-β-gal (100 ng/well) using FuGene6 (Roche, Germany) following the protocol provided by the manufacturer. Murine iNOS promoter luciferase plasmids, human iNOS promoter-luciferase reporter plasmids (pGL3-8296), and murine COX-II promoter-luciferase reporter plasmids were generously provided by Drs. Charles J. Lowenstein (John Hopkines University), Joel Moss (National Institute of Health), and Yu-Chih Liang (Taipei Medical University), respectively. […]
The luciferase and β-galactosidase assays were performed using a STEADY-GLO luciferase assay system (Promega) and Galacto-Star assay system (Tropix) according to the manufacturer's instructions. Luminescence was measured in a TOPCOUNT.NXT™ Microplate Scintillation and Luminescence Counter (Packard Inc.). […]

[1] = tested on: HONE-1 (nasopharyngeal carcinoma); assay: Carcinoma cell growth inhibition (MTS assay), HONE-1; assay type: cell-based; details: 72 h
Description: (§1) Two cancer cell lines, HONE-1 (nasopharyngeal carcinoma) and NUGC-3 (gastric cancer), were maintained in DMEM medium containing 10% fetal bovine serum, seeded in 96-well plates (4500 and 6000 cells/well, respectively), and incubated under CO2 at 37° C. for 24 h. The cells were treated with at least five different concentrations of test compounds in a CO2 incubator for 72 h. The number of viable cells was estimated using the tetrazolium dye reduction assay (MTS assay) according to the protocol provided by the manufacturer (Promega, Madison, Wis., USA). The absorbance was measured at 490 nm on a Wallac 1420 VICTOR2 Multilabel counter (Perkin-Elmer, Boston, Mass.). The results of these assays were used to obtain the dose-response curves from which IC50 (nM) values were determined (an IC50 value represents the concentration (nM) of the test compound at which it produces a 50% cell growth inhibition after 3 days of incubation).

NUGC-3 (gastric cancer) = assay: Carcinoma cell growth inhibition (MTS assay), NUGC-3; assay type: cell-based; details: 72 h
Description: as §1

NF-κB [2] = assay: pNF-κB-Luc luciferase reporter assay in LPS/IFNγ-treated RAW 264.7 (or A549) cells; assay type: cell-based
Description: (§2) The luciferase and β-galactosidase assays were performed using a STEADY-GLO luciferase assay system (Promega) and Galacto-Star assay system (Tropix) according to the manufacturer's instructions. Luminescence was measured in a TOPCOUNT.NXT™ Microplate Scintillation and Luminescence Counter (Packard Inc.). The results were normalized to β-galactosidase activity derived from co-transfected LacZ gene under the control of a constitutive promoter.
(§3) RAW 264.7 cells (or A549 cells) were seeded in 24-well plates (10^6 cells/well) 4-6 h before they were transfected with pNF-κB-Luc (Stratagene Corp., Calif.) (100 ng/well) and pCMV-β-gal (100 ng/well), or pAP 1-Luc (Stratagene Corp., Calif.) (200 ng/well) alone. The transfected cells were incubated for 24 h and then washed with the culture medium twice. After 18 h of incubation, the cells were treated with LPS (10 μg/ml)/IFNγ (20 ng/ml) and Compound 2 (final concentration: 0.3, 1, 3, or 10 μM) for 5 h. The cells were subjected to the luciferase and β-galactosidase assays.

iNOS = iNOS level by immunoblotting; assay type: cell-based; details: immunoblotting of cell lysates
Description: (§4) Levels of iNOS, COX-II, and β-actin (control) were measured by immunoblotting with anti-iNOS antibody (Biomol), anti-COX-II antibody (Upstate), and anti-β-actin antibody (Chemicon), respectively. The cell lysates were subjected to SDS-PAGE and the separated proteins were electrophoretically transferred to nitrocellulose membranes. The membranes were incubated, respectively, with blocking solution for 1 h, primary antibody for 2 h, and secondary antibody for 1 h. Antigen-antibody complexes were detected using ECL detection reagents (Perkin Elmer, Western Blot Chemiluminescence Reagent Plus) according to the manufacturer's instructions.

Akt = assay: Phosphorylation of Akt in LPS/IFNγ-treated RAW264.7 cells; assay type: cell-based
AP 1 = assay: pAP 1-Luc reporter assay in RAW264.7 cells co-transfected with pFC-MEKK; assay type: cell-based; details: at the concentration of 3 μM or higher; cells treated with LPS/IFNγ
Description: as §3
(§5) In a similar manner, RAW264.7 cells were transfected with pNF-κB-Luc plasmids (100 ng/well) or pAP 1-Luc (100 ng/well) as well as pFC-MEKK (Stratagene Corp., Calif.) (50 ng/well) and/or pCMV-β-gal plasmids (100 ng/well) and the transfected cells were subjected to the luciferase and β-galactosidase assays.

NF-κB [3] = assay: pNF-κB-Luc reporter assay in RAW264.7 cells co-transfected with pFC-MEKK; assay type: cell-based; details: at the concentration of 3 μM or higher; cells treated with LPS/IFNγ
Description: as §3, §5

ATF-2 = assay: Phosphorylation of ATF-2 in LPS/IFNγ-treated RAW264.7 cells; assay type: cell-based
AP1 = assay: pAP 1-Luc luciferase reporter assay in LPS/IFNγ-treated RAW 264.7 (or A549) cells; assay type: cell-based; details: at the concentration higher than 1 μM; LPS (10 μg/ml)/IFNγ (20 ng/ml), 5 h
Description: as §2, §3

c-Jun = assay: Expression of c-Jun in LPS/IFNγ-treated RAW264.7 cells; assay type: cell-based
TNF α = TNF α protein ELISA in cell culture supernatants; assay type: cell-based
Description: RAW 264.7 cells were seeded (70,000 cells/well) and cultured in 96-well culture plate. After 24 h incubation, the medium was replaced with one containing LPS (5 ug/ml)/IFNγ (20 ng/ml) and each of Compounds 1-4 (final concentration: 3, 5, or 6 μM) was added at different concentrations. After 18-24 h, the supernatants were subjected to the measurement of nitric oxide production using the Nitrate/Nitrite assay kit (Cayman Chemical). Nitric oxide levels were measured as the accumulation of nitrite and nitrate in the incubation medium. Nitrate was reduced to nitrite with nitrate reductase and determined spectrophotometrically with the Griess reagent at OD405. The attached cells were subjected to cytotoxicity measurement using the MTS assay.
An ELISA kit (R & D Systems Inc., USA) was used to measure TNF α protein in cell culture supernatants using according to the manufacturer's instructions.

MEKK1 = target: T1, MEKK1 (Mus musculus, UniProt P53349); assay: MEKK1 inhibition inferred from reporter assays in MEKK1 over-expressing RAW264.7 cells; assay type: cell-based; details: suggested by the reporter results in MEKK1 over-expressing cells
T1 construct: host or cells: RAW264.7
T1 sequence (P53349 1201-1493 limits assumed): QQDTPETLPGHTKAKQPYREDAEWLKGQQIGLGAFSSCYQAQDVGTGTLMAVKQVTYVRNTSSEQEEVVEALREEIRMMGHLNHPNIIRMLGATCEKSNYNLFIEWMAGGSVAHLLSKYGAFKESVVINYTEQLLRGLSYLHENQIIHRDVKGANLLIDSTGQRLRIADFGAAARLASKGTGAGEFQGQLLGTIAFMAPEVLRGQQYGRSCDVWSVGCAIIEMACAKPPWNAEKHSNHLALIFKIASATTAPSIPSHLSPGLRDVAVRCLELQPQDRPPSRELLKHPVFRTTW
Description: as §5

COX-II = COX-II level by immunoblotting; assay type: cell-based; details: immunoblotting of cell lysates
Description: as §4

Row | Structure (SMILES) | inhibition of iNOS promoter activity (iNOS promoter) | inhibition of proliferation of HONE-1 cells [1] | inhibition of proliferation of NUGC-3 cells (NUGC-3 (gastric cancer)) | inhibition of NF-κB activity, Compound 2 and another P13K/Akt inhibitor (NF-κB [2]; Compound 2 and LY294002 named together, LPS/IFNγ-treated RAW264.7 cells) | inhibition of NF-κB activity (NF-κB [2]; tested at 0.3, 1, 3, or 10 μM, LPS (10 μg/ml)/IFNγ (20 ng/ml), 5 h, serum-free medium) | iNOS level (iNOS) | phosphorylation of Akt (Akt) | inhibition of AP 1 activity in cells with over-expression of MEKK1 (AP 1) | inhibition of pNF-κB activity in cells with over-expression of MEKK1 (NF-κB [3]) | phosphorylation of ATF-2 (ATF-2) | inhibition of AP 1 activity (AP1) | expression of c-Jun (c-Jun) | inhibition of production of TNF α (TNF α) | inhibition of MEKK1 activity or expression (MEKK1) | COX-II level (COX-II)
1 | COc1cc2c3c(c4cc(OC)c(OC)c(OC)c4c2cc1OC)[C@H](O)[C@@H]1CCC[N+]1([O-])C3 (some centres unmarked) [Compound 4] | effectively inhibited | inhibited | inhibited |  |  |  |  |  |  |  |  |  |  |  | 
2 | COc1cc2c3c[n+]4c(cc3c3cc(OC)c(OC)c(OC)c3c2cc1OC)CCC4 [Compound 1] |  | inhibited | inhibited |  |  |  |  |  |  |  |  |  |  |  | 
3 | COc1cc2c3c(c4cc(OC)c(OC)cc4c2cc1OC)CN1CCC[C@H]1C3 [Compound 2] | effectively inhibited | inhibited | inhibited | significantly inhibited | not | lowered | enhanced | inhibited | inhibited | enhanced | inhibited | inhibited | inhibited | inhibited | lowered
